The values that follow come from US4748161A, “Triterpenyl esters of organic acids and hypolipidemic agents composed of them” (Amano Pharmaceutical Co., Ltd., priority 1984, dated 1988).

“And” between values parts separate entries of the source, which are not always exact repeats. Equal entries are not always repeated.

For the assay, the system named is serum lipids and serum lipid hydroperoxide. The assay can be described thus: Pharmacological test method A for anti-hyperlipidemic activity (serum lipids, 2 weeks feeding). The format is in vivo, male Wistar strain rats. The settings on record: for AI [(TC - HDL-C)/(HDL-C)] / HDL-C in serum / LPO in serum / PL in serum / TC in serum / TG in serum: 1% in hyperlipidemic diet, 2 weeks. The method, then: Male Wistar strain rats (100±lg, each 10 rats were formed into a group) were used as test animals. Diet for the control group was prepared by thorough mixing of 20% casein, 62.5% glucose, 10% hydrogenated coconut oil, 2% agar powder, 4% vitamin-containing salt mixture, 1% cholesterol, and 0.5% cholic acid (this composition is described by Fukushima et al, in "Yakugaku Zassi", 89, No. 6, pp. 857-862 (1962)). Diet for the test groups was prepared by good mixing of 1% each of cycloartenol, 24-methylenecycloartanol, and cyclobranol with the control group's diet. Each rat was kept in a cage at a constant temperature of 23±1° C. and a constant R.H. of 55±5% for 2 weeks, during which 10 g/day of the prescribed was given. Finally the rats were fasted from food except water for 16 hours (from 4 p.m. of the 14th test day to 8 a.m. of the 15th test day), and under anesthesia with pentbarbital sodium (tradename: Nembutal), blood was taken from each rat through the descending abdominal arota. Then, TC, HDL-C, TG, PL, and LPO in the serum were measured in the manner that will be described below.
A TC kit-K (supplied by Nippon Shoji Kaisha, Ltd.) was used. The principle of this determination is as follows: The ester of cholesterol in the serum is hydrolyzed with cholesterol-ester hydrolase into free cholesterol and fatty acids. All the free cholesterol is oxidized with cholesterol oxydase to form Δ^4 -cholestenone and hydrogen peroxide. Phenol and 4-aminoantipyrin are oxidatively condensed together by the formed hydrogen peroxide and peroxydase. The produced red quinone coloring matter is measured by colorimetry for absorbance at 500 nm using a spectrophotometer, thereby determining the TC:
The color-developing liquid (3.0 ml) is well mixed with the sample serum (0.02 ml). The mixture once heated at 37° C. for 15 minutes, is measured for absorbance at 500 nm with a spectrophotometer. The found absorbance is denoted by EA. On the other hand, the color-developing liquid (3.0 ml) is well mixed with the standard solution. The mixture is treated and measured for absorbance at 500 nm in the same manner as the above. This found absorbance is denoted by ES. Both EA and ES are determined with reference to the value of the blank test conducted using the color-developing liquid (3.0 ml) alone. [formula]
An HDL-C kit-N (supplied by Nippon Shoji Kaisha, Ltd.) was used. […] (VLDL) and lo density lipoprotein (LDL) in the serum is precipitated by the action of heparin. The precipitate is separated by centrifugation. High density lipoprotein (HDL) is dissolved in the separated supernatant. Esters of cholesterol in this fraction is hydrolyzed with cholesterol-ester hydrolase into free cholesterol and fatty acids. All the free cholesterol is oxidized with cholesterol oxydase to form Δ^4 -cholestenone and hydrogen peroxide. Phenol and 4-aminoantipyrine are oxidatively condensed together by the formed hydrogen peroxide and peroxydase. The produced red quinone coloring matter is measured by colorimetry for absorbance at 500 nm using a spectrophotometer, thereby determining the HDL-C.
A PL kit-K (supplied by Nippon Shoji Kaisha, Ltd.) was used for the determination. Lecithin, sphingomyelin, and lysolecithin are decomposed by phospholipase D into choline and phosphatidic acid, N-acylsphingosyl phosphate, or lysophosphatidic acid, respectively. The resulting choline is quantitatively decomposed by choline oxydase into hydrogen peroxide and betaine. With this hydrogen peroxide, and aid of peroxydase, phenol and 4-aminoantipyrin are condensed into red quinone pigment, then the absorbance at 500 nm of which is measured with a spectrophotometer, thereby determining the PL.
Serum TG level was determined by means of a triglyceride test kit (supplied by Wako Pure Chemical Industries, Ltd.) in which acetylacetone is used for a reagent, in the following manner: Serum proteins are precipitated, when isopropyl alcohol and the sample serum are mixed. […]

With `COc1ccc(C(=O)OC2CCC34CC35CCC3(C)C(C(C)CCC=C(C)C)CCC3(C)C5CCC4C2(C)C)cc1` (stereo not drawn) [Example 14, cycloartenyl-p-methoxybenzoate], the “AI [(TC - HDL-C)/(HDL-C)]” value stood at 1.275, the HDL-C in serum stood at 64.1 mg/dL, the LPO in serum was 1.81 nmol/mL and the PL in serum is 120.9 mg/dL. Also, the TC in serum worked out at 145.8 mg/dL and the TG in serum was determined as 25.4 mg/dL. Moreover, under “versus control group”, the “AI % of diff.” value is listed as -27.8%, the “AI Diff.” value is listed as -0.492, the “HDL-C % of diff.” value was “+6.5%” and the “HDL-C Diff.” value is “+3.9 mg/dl”. Besides, for the setting “versus control group”, the “LPO % of diff.” value is on record as -28.5%, the “LPO Diff.” value is -0.72 nmol/mL, the “PL % of diff.” value was -11.6% and the “PL Diff.” value was -15.8 mg/dL. Where the note is “versus control group”, the “TC % of diff.” value is -12.5%, the “TC Diff.” value is -20.8 mg/dL, the “TG % of diff.” value is -6.6% and the “TG Diff.” value was -1.8 mg/dL.

As for `CC(C)=CCCC(C)C1CCC2(C)C3CCC4C(C)(C)C(OC(=O)c5ccc(O)c(O)c5)CCC45CC35CCC12C` (stereo not drawn) [Example 27, cycloartenyl-3,4-dihydroxybenzoate], the “AI [(TC - HDL-C)/(HDL-C)]” value is reported as 0.955, the HDL-C in serum worked out at 95.2 mg/dL, the LPO in serum is 1.99 nmol/mL and the PL in serum turned out to be 160.3 mg/dL. Further, the TC in serum was found to be 186.1 mg/dL and the TG in serum is 40.4 mg/dL. Further, where the note is “versus control group”, the “AI % of diff.” value is reported as -43.3%, the “AI Diff.” value was -0.729, the “HDL-C % of diff.” value was “+17.7%” and the “HDL-C Diff.” value is “+14.3 mg/dl”. For the same molecule, for the setting “versus control group”, the “LPO % of diff.” value is on record as -14.0%, the “LPO Diff.” value was -0.32 nmol/mL, the “PL % of diff.” value is -10.8% and the “PL Diff.” value is -19.4 mg/dL. Also, where the note is “versus control group”, the “TC % of diff.” value was -14.3%, the “TC Diff.” value is -31.0 mg/dL, the “TG % of diff.” value is -5.5% and the “TG Diff.” value was -2.4 mg/dL.

`COc1cc(C(=O)OC2CCC34CC35CCC3(C)C(C(C)CCC(C)=C(C)C)CCC3(C)C5CCC4C2(C)C)ccc1O` (stereo not drawn) [Example 37, cyclobranyl-4-hydroxy-3-methoxybenzoate]: the “AI [(TC - HDL-C)/(HDL-C)]” value stood at 0.460, the HDL-C in serum was 110.4 mg/dL, the LPO in serum came out at 1.91 nmol/mL and the PL in serum was found to be 155.4 mg/dL. For the same molecule, the TC in serum is 161.2 mg/dL and the TG in serum stood at 31.0 mg/dL. For the same molecule, where the note is “versus control group”, the “AI % of diff.” value is on record as -54.1%, the “AI Diff.” value is given as -0.542, the “HDL-C % of diff.” value is “+14.8%” and the “HDL-C Diff.” value is on record as “+14.2 mg/dl”. Where the note is “versus control group”, the “LPO % of diff.” value was -18.0%, the “LPO Diff.” value is -0.42 nmol/mL, the “PL % of diff.” value was -14.1% and the “PL Diff.” value was -25.5 mg/dL. Besides, where the note is “versus control group”, the “TC % of diff.” value is given as -16.3%, the “TC Diff.” value is -31.4 mg/dL, the “TG % of diff.” value is recorded as -6.6% and the “TG Diff.” value was -2.2 mg/dL.

`C=C(CCC(C)C1CCC2(C)C3CCC4C(C)(C)C(OC(=O)C=Cc5ccc(OC(C)=O)cc5)CCC45CC35CCC12C)C(C)C` (stereo not drawn) [Example 83, 24-Methylenecycloartanyl ester of p-acetoxycinnamic acid]: the “AI [(TC - HDL-C)/(HDL-C)]” value worked out at 1.059, the HDL-C in serum is 93.3 mg/dL, the LPO in serum worked out at 2.02 nmol/mL and the PL in serum worked out at 162.1 mg/dL. For the same molecule, the TC in serum stood at 192.1 mg/dL and the TG in serum came to 41.1 mg/dL. Moreover, where the note is “versus control group”, the “AI % of diff.” value was -37.1%, the “AI Diff.” value is given as -0.625, the “HDL-C % of diff.” value is listed as “+15.3%” and the “HDL-C Diff.” value is “+12.4 mg/dl”. Where the note is “versus control group”, the “LPO % of diff.” value was -12.7%, the “LPO Diff.” value was -0.29 nmol/mL, the “PL % of diff.” value was -9.8% and the “PL Diff.” value was -17.6 mg/dL. Where the note is “versus control group”, the “TC % of diff.” value is -11.5%, the “TC Diff.” value was -25.0 mg/dL, the “TG % of diff.” value is given as -4.0% and the “TG Diff.” value was -1.7 mg/dL.

Regarding “cycloartenyl-3,4-dihydroxycinnamate [Example 2]”, the “AI [(TC - HDL-C)/(HDL-C)]” value is 0.860 and 1.180; the HDL-C in serum is 90.3 mg/dL and 89.2 mg/dL; the LPO in serum was 1.98 nmol/mL and 2.05 nmol/mL; the PL in serum is 168.2 mg/dL and 170.2 mg/dL. Also, the TC in serum is 168.0 mg/dL and 194.5 mg/dL; the TG in serum is 30.6 mg/dL and 41.3 mg/dL. The “AI Diff.” value (Table 2, versus control group) was -0.657 mg/dL. Besides, under “versus control group”, the “AI Diff.” value is reported as -0.504; the “LPO % of diff.” value is -12.8% and -11.2%; the “PL % of diff.” value was -3.1% and -5.0%; the “TC % of diff.” value is -18.1% and -10.4%. Besides, the “TG % of diff.” value (versus control group) was -10.9% and -3.5%.

Regarding `C=C(CCC(C)C1CCC2(C)C3CCC4C(C)(C)C(OC(=O)C=Cc5ccc(O)c(OC)c5)CCC45CC35CCC12C)C(C)C` (stereo not drawn) [Example 100-3, 24-methylenecycloartanyl-4-hydroxy-3-methoxycinnamate], the “AI [(TC - HDL-C)/(HDL-C)]” value is given as 1.393, the HDL-C in serum was 73.8 mg/dL, the LPO in serum is 1.89 nmol/mL and the PL in serum came to 152.9 mg/dL. Also, the TC in serum is 176.6 mg/dL and the TG in serum turned out to be 35.1 mg/dL. Where the note is “versus control group”, the “AI % of diff.” value is -8.2%, the “AI Diff.” value is listed as -0.124, the “HDL-C % of diff.” value is reported as -9.4% and the “HDL-C Diff.” value is -7.7 mg/dL. In addition, for the setting “versus control group”, the “LPO % of diff.” value was -16.7%, the “LPO Diff.” value is -0.38 nmol/mL, the “PL % of diff.” value is recorded as -11.9% and the “PL Diff.” value is -20.7 mg/dL. In addition, for the setting “versus control group”, the “TC % of diff.” value was -13.9%, the “TC Diff.” value was -28.5 mg/dL, the “TG % of diff.” value was “+2.3%” and the “TG Diff.” value was “+0.8 mg/dl”.

For the molecule `CC(C)=CCCC(C)C1CCC2(C)C3CCC4C(C)(C)C(OC(=O)C=Cc5cccc(N)c5)CCC45CC35CCC12C` (stereo not drawn) [Example 108, cycloartenyl ester of m-aminocinnamic acid], the “AI [(TC - HDL-C)/(HDL-C)]” value was determined as 3.627, the HDL-C in serum is 46.6 mg/dL, the LPO in serum amounted to 2.20 nmol/mL and the PL in serum came out at 151.4 mg/dL. In addition, the TC in serum came out at 215.6 mg/dL and the TG in serum is 29.0 mg/dL. Where the note is “versus control group”, the “AI % of diff.” value was -53.7%, the “AI Diff.” value was -4.213, the “HDL-C % of diff.” value is given as “+26.3%” and the “HDL-C Diff.” value was “+9.7 mg/dl”. Further, where the note is “versus control group”, the “LPO % of diff.” value is -21.4%, the “LPO Diff.” value was -0.60 nmol/mL, the “PL % of diff.” value is given as -8.6% and the “PL Diff.” value was -14.2 mg/dL. Under “versus control group”, the “TC % of diff.” value is -33.9%, the “TC Diff.” value is -110.6 mg/dL, the “TG % of diff.” value is recorded as -14.7% and the “TG Diff.” value was -5.0 mg/dL.
